Experimental data taken from article PMC4979595, “Pilot PET Study to Assess the Functional Interplay Between ABCB1 and ABCG2 at the Human Blood–Brain Barrier” (Clinical Pharmacology and Therapeutics, 2016).
Where “and” joins values, the source holds several entries; their conditions need not be identical. Identical values can stand only once. Like-named read-outs stand apart in the source and are kept apart here. Marks after values point to notes of the source that are not given here.

What was measured:
[1] = Plasma protein binding by ultrafiltration; settings: similar in baseline and ABCB1 inhibition scans, high nonspecific filter binding
[2] = Plasma time-activity curve AUC of radiotracers; settings: c.421CC
Text: (§1) A whole brain gray matter region of interest was defined on individual magnetic resonance images acquired in all study participants (T1‐weighted Achieva 3.0T scanner; Philips Medical Systems, Best, The Netherlands) using the Hammersmith n30r83 3D maximum probability atlas of the human brain.43 In addition, the pituitary gland was manually delineated.

[3] = Radiolabeled metabolites / unchanged radiotracer in plasma during PET (solid-phase extraction); settings: 60 minutes after injection, c.421CC subjects
[4] = test system: ABCB1 and ABCG2 at the human BBB; test: PET brain distribution of radiotracers, baseline scan and scan during ABCB1 inhibition with tariquidar infusion; settings: for K 1 / k 2 / k 3 / k 4: 2T4K model; for K 1 / k 2 / k 3 / k 4 / V T (2T4K) / V T (Logan): whole brain; for whole brain V T (Logan) lower than V T (Logan) in the pituitary gland: c.421CC subjects
Text: as §1

[5] = test system: ABCB1 and ABCG2 at the human BBB; settings: in vivo
Text: as §1

in vitro = settings: human, plasma
human ABCG2 = molecular target: T1, human ABCG2 (Homo sapiens, UniProt Q9UNQ0); test: In vitro uptake assay in MDCK-ABCG2 cells: tariquidar inhibition of ABCG2-mediated transport; assay type: cell-based; settings: for IC50: IC50 of tariquidar for inhibition of ABCG2 transport, 120 min uptake
T1 construct: P. Borst and Dr. A. Schinkel (Netherlands Cancer Institute); host or cells: MDCK-II (MDCK-ABCG2)
T1 sequence (Q9UNQ0 1-655): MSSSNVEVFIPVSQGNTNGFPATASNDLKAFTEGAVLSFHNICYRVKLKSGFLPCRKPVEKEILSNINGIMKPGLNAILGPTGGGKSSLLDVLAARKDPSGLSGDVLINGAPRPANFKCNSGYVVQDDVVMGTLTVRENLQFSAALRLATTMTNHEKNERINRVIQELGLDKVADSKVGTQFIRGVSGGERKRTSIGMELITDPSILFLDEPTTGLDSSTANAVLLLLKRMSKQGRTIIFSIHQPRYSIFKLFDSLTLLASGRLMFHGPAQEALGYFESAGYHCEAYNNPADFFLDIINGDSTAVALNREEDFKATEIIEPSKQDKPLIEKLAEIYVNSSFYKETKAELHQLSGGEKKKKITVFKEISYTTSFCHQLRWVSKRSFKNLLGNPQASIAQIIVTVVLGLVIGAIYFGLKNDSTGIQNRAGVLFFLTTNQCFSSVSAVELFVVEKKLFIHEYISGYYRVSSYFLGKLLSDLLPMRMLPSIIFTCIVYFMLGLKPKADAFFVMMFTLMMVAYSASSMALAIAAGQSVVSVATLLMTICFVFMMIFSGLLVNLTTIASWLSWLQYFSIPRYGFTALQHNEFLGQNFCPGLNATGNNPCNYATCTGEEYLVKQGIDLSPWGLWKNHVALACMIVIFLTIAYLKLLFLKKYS
Experimental: LLC‐PK1 cells transduced with human ABCB1 (LLC‐ABCB1) and MDCK‐II cells transduced with human ABCG2 (MDCK‐ABCG2) were kindly provided by Prof. P. Borst and Dr. A. Schinkel (Netherlands Cancer Institute, Amsterdam, Netherlands). Culturing of the cells and testing of vincristine sulfate resistance (0.64 μmol/L) for LLC‐ABCB1 cells and mitoxantrone resistance (20 μmol/L) for MDCK‐ABCG2 cells was performed as described previously.46
Cells were seeded with a density of 0.3 × 10^6 cells/cm^2 on 96‐well plates (white Isoplates for liquid scintillation counting, Perkin Elmer, Rodgau, Germany). Then 5–7 days after the cells reached 100% confluence, the experiment was initiated with 1‐hour preincubation at 37°C, 5% carbon dioxide, and 95% humidity, for which culture medium was replaced by serum‐free Opti‐MEM (Gibco/Life Technologies, Darmstadt, Germany). […] After 120 minutes (37°C, 5% carbon dioxide, 95% humidity), cells were transferred on ice, washed twice with ice‐cold phosphate‐buffered saline before lysis buffer (25 mmol/L Tris, pH 8, 50 mmol/L sodium chloride, 0.5% (w/v) deoxycholic acid, 0.5% (w/v) Triton X‐100) supplemented with complete protease inhibitor (Roche, Mannheim, Germany) was added and protein concentrations in the respective wells were determined by using the Pierce BCA Protein Assay kit (ThermoScientific, Pittsburgh, PA).
With Prism 6.0 software (GraphPad Software, La Jolla, CA), a sigmoidal model with variable slope was used to analyze concentration–response relationships by nonlinear regression.

[6] = Safety monitoring: adverse events during study participation; assay type: in vivo, human; settings: relationship with tariquidar administration could not be excluded
Experimental: During the PET study, heart rate and blood pressure were repeatedly measured and recorded. In addition, clinical laboratory blood and urine tests were performed. Adverse events were recorded.

human ABCB1 [7] = molecular target: T2, human ABCB1 (Homo sapiens, UniProt P08183)
[8] = design: method as in earlier work; settings: (R)-[^11C]verapamil group, no ABCG2 genotype available, data from previous study, cited from earlier work
ABCB1 at the human BBB = test system: ABCB1 at the human BBB; design: method as in PMID 25669913; settings: tariquidar plasma concentration; previously estimated; read-out: in vivo IC50 for inhibition of ABCB1 transport of (R)-[^11C]verapamil at the human BBB; cited from earlier work
human ABCB1 [9] = molecular target: T2, human ABCB1; test: cell-based
[10] = Tariquidar plasma concentrations during second PET scan (LC-MS/MS)

T2 sequence (P08183 whole entry): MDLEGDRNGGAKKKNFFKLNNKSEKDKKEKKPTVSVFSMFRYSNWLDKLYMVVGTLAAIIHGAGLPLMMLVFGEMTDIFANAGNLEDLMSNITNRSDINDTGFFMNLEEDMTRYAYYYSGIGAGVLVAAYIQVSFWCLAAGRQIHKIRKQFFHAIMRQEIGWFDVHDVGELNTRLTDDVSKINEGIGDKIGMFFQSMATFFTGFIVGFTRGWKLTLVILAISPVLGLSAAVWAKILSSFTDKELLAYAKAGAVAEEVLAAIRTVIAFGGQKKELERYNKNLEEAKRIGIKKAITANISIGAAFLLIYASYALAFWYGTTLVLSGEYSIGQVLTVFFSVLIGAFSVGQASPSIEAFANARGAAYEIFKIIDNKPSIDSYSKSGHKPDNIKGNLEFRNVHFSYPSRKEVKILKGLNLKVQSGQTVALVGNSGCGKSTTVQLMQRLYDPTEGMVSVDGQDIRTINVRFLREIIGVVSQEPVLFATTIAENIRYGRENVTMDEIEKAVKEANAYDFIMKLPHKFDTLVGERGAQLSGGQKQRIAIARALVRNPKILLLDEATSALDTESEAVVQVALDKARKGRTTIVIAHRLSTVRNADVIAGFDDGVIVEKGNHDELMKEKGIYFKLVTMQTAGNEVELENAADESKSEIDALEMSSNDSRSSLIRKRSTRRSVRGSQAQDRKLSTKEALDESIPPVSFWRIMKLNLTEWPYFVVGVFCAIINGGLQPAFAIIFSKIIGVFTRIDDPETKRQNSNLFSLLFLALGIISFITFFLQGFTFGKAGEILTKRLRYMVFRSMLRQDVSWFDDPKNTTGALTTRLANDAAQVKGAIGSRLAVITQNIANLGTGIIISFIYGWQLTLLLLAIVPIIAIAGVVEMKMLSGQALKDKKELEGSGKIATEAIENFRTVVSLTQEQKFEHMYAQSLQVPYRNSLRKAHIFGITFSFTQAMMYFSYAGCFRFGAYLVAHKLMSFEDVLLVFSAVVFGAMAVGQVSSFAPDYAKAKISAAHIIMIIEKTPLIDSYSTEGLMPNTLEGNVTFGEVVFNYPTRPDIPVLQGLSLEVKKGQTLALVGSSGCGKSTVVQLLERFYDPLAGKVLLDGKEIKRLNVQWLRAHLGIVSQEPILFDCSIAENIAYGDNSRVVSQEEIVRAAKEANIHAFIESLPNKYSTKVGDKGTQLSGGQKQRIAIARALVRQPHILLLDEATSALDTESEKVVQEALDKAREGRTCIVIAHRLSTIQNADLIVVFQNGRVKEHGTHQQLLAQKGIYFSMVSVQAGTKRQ

## COc1cc2c(cc1OC)CN(CCc1ccc(NC(=O)c3cccc4c(=O)c5cccc(OC)c5[nH]c34)cc1)CC2 [[^11C]elacridar]
[1]
  Plasma protein binding: > 99%
[2]; 0 to 60 min
  AUC ABCB1 inhibition (plasma time-activity curve): 46.9 ± 8.0 SUV x min
  AUC baseline (plasma time-activity curve): 37.2 ± 6.2 SUV x min
[2]
  % change over baseline (plasma AUC): 27 ± 12%
[3]; baseline scans
  percentage of unchanged radiotracer in plasma: 94.6 ± 2.3%
[3]; second PET scan (tariquidar infusion)
  percentage of unchanged radiotracer in plasma: 94.7 ± 1.1%
[4]; c.421CC ABCB1 inhibition
  K 1: 0.013 ± 0.005 (8) mL/(g x min)
  k 2: 0.302 ± 0.250 (31) 1/min
  k 3: 0.198 ± 0.050 (21) 1/min
  k 4: 0.016 ± 0.003 (13) 1/min
  V T (2T4K): 0.676 ± 0.111 (6)
  V T (Logan): 0.658 ± 0.098 (9)
[4]; c.421CC baseline
  K 1: 0.006 ± 0.002 (9) mL/(g x min)
  k 2: 0.135 ± 0.050 (33) 1/min
  k 3: 0.148 ± 0.040 (22) 1/min
  k 4: 0.015 ± 0.004 (17) 1/min
  V T (2T4K): 0.492 ± 0.051 (9)
  V T (Logan): 0.478 ± 0.027 (6)
[4]; scan 1 (baseline)
  whole brain V T (Logan) lower than V T (Logan) in the pituitary gland: 13.2 ± 4.6 fold
[4]; scan 2 (ABCB1 inhibition)
  whole brain V T (Logan) lower than V T (Logan) in the pituitary gland: 7.9 ± 2.1 fold
[4]; comparison with a previous preclinical study
  baseline whole brain V T (Logan) lower in humans than in rats: ~2 fold
[4]; pituitary gland
  V T (Logan) in the pituitary gland during tariquidar infusion as compared with baseline scans: not significantly different
[4]; single c.421CA subject with the highest increase (scanned with both radiotracers)
  increase in V T (Logan) in scan 2: 2.3 fold

## COc1cc2c(cc1OC)CN(CCc1ccc(NC(=O)c3cc(OC)c(OC)cc3NC(=O)c3cnc4ccccc4c3)cc1)CC2 [[^11C]tariquidar]
[5]; human compared with rat
  baseline whole brain V T (Logan) lower in humans than in rats: ~2 fold
[5]; human
  V T (Logan): 0.40
  increase in V T (Logan) in scan 2: 3.1 fold
In vitro
  fraction unbound: < 0.01

## COc1cc2c(cc1OC)CN(CCc1ccc(NC(=O)c3cc(OC)c(OC)cc3NC(=O)c3cnc4ccccc4c3)cc1)CC2 [tariquidar]
Human ABCG2; [^3H]elacridar (1 nmol/L) as substrate
  IC50: 813 nM
Human ABCG2; [^3H]tariquidar (1 nmol/L) as substrate
  IC50: 310 nM
Human ABCG2; [^3H]elacridar as substrate
  Hill slope: 1.1
Human ABCG2; [^3H]tariquidar as substrate
  Hill slope: 1.1
[6]
  Adverse event: abdominal cramps and vomiting: one
  Adverse event: collapse: four
  Adverse event: dizziness: two
  Adverse event: dysgeusia: 10 subjects
  Adverse event: headache: three
  Adverse event: phlebitis: three
Human ABCB1 [7]
  IC50: 17.1 nM
[8]; end of PET
  Tariquidar concentration in plasma of individual subjects: 3.76 µmol/L and 2.52 µmol/L and 4.11 µmol/L and 2.83 µmol/L and 3.38 µmol/L
[8]; middle of PET
  Tariquidar concentration in plasma of individual subjects: 3.61 µmol/L and 2.71 µmol/L and 3.88 µmol/L and 2.85 µmol/L and 2.56 µmol/L
[8]; start of PET
  Tariquidar concentration in plasma of individual subjects: 2.81 µmol/L and 1.70 µmol/L and 2.36 µmol/L and 1.91 µmol/L and 2.11 µmol/L
ABCB1 at the human BBB
  IC50: 2300 ± 1000 nM
Human ABCB1 [9]
  IC50: 29.5 nM
[10]; [^11C]elacridar group, c.421CC, i.v. infusion, total dose 5.7 ± 0.8 mg/kg
  Tariquidar plasma concentration during the PET scan (average of three determinations): 2.6 ± 0.5 µmol/L
[10]; [^11C]tariquidar group, c.421CA, i.v. infusion
  Tariquidar plasma concentration at the time of PET: 3.2 ± 0.4 µmol/L
[10]; end of PET, [^11C]elacridar c.421CA
  Tariquidar concentration in plasma of individual subjects: 2.22 µmol/L
[10]; end of PET, [^11C]elacridar c.421CC
  Tariquidar concentration in plasma of individual subjects: 2.45 µmol/L and 1.98 µmol/L and 2.58 µmol/L and 2.72 µmol/L and 4.03 µmol/L
[10]; end of PET, [^11C]tariquidar c.421CA
  Tariquidar concentration in plasma of individual subjects: 3.67 µmol/L and 3.18 µmol/L and 2.24 µmol/L and 3.08 µmol/L and 3.79 µmol/L
[10]; end of PET, [^11C]tariquidar c.421CC
  Tariquidar concentration in plasma of individual subjects: 2.71 µmol/L and 2.78 µmol/L and 3.13 µmol/L and 3.70 µmol/L
[10]; middle of PET, [^11C]elacridar c.421CA
  Tariquidar concentration in plasma of individual subjects: 2.23 µmol/L
[10]; middle of PET, [^11C]elacridar c.421CC
  Tariquidar concentration in plasma of individual subjects: 2.33 µmol/L and 2.55 µmol/L and 2.71 µmol/L and 2.43 µmol/L and 3.73 µmol/L
[10]; middle of PET, [^11C]tariquidar c.421CA
  Tariquidar concentration in plasma of individual subjects: 3.93 µmol/L and 3.55 µmol/L and 3.31 µmol/L and 2.86 µmol/L and 3.57 µmol/L
[10]; middle of PET, [^11C]tariquidar c.421CC
  Tariquidar concentration in plasma of individual subjects: 2.68 µmol/L and 2.09 µmol/L and 2.95 µmol/L and 2.70 µmol/L and 2.65 µmol/L
[10]; start of PET, [^11C]elacridar c.421CA
  Tariquidar concentration in plasma of individual subjects: 1.94 ^a µmol/L
[10]; start of PET, [^11C]elacridar c.421CC
  Tariquidar concentration in plasma of individual subjects: 2.67 µmol/L and 1.83 µmol/L and 1.71 µmol/L and 2.74 µmol/L and 2.73 µmol/L
[10]; start of PET, [^11C]tariquidar c.421CA
  Tariquidar concentration in plasma of individual subjects: 3.70 µmol/L and 2.61 µmol/L and 2.87 ^a µmol/L and 2.47 µmol/L and 2.80 µmol/L
[10]; start of PET, [^11C]tariquidar c.421CC
  Tariquidar concentration in plasma of individual subjects: 2.91 µmol/L and 2.17 µmol/L and 2.65 µmol/L and 2.67 µmol/L and 2.64 µmol/L
